Reference: patent US20250388593A1 (MITSUBISHI TANABE PHARMA CORPORATION, priority 2023, published 2025)

target: CRBN truncate (318-426) (Homo sapiens (Human), UniProt Q96SW2); assay: Measurement of molecular interactions using surface plasmon resonance (SPR), Biacore T200; assay type: binding; conditions: 25° C., immobilized CRBN truncate, upper limit of measurement 200 μM
Procedure: The instrument used was the Biacore T200 (manufactured by Cytiva). The CRBN truncate (318-426) was obtained by expressing a construct with an Avi-tag added at the C-terminus. The sensor chip used was Sensor Chip SA (manufactured by Cytiva). The CRBN truncate was immobilized using the affinity between SA (streptavidin) on the sensor chip and the Avi-tag. The running buffer was a mixture of 10 mM HEPES pH 7.5, 150 mM NaCl, 1 mM TCEP, 0.005% Tween 20, and 2% DMSO. […] Contact time and dissociation time were set at 60 seconds and 120 seconds, respectively.

CRBN truncate (318-426), sequence (Q96SW2 318-426): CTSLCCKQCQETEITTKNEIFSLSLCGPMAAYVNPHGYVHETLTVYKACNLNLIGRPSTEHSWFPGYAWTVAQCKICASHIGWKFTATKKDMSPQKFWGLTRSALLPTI

Kd [µM]	Structure (SMILES)
≥ 100	Cn1ncc2c(N3CCC4(CCCC(=O)NC4=O)C3)ncnc21 (centres unmarked) [Example 39, 2-(1-methylpyrazolo[3,4-d]pyrimidin-4-yl)-2,7-diazaspiro[4.6]undecane-6,8-dione]
≥ 100	CCOC(=O)c1cc(N2CCC3(CCCC(=O)NC3=O)C2)ncc1C(F)(F)F (centres unmarked) [Example 40, Ethyl 2-(6,8-dioxo-2,7-diazaspiro[4.6]undecan-2-yl)-5-(trifluoromethyl)pyridine-4-carboxylate]
≥ 100	COc1cc(N2CCC3(CCCC(=O)NC3=O)C2)ccc1[N+](=O)[O-] (centres unmarked) [Example 41, 2-(3-Methoxy-4-nitrophenyl)-2,7-diazaspiro[4.6]undecane-6,8-dione]
50 to 100	COc1cc([N+](=O)[O-])ccc1N1CCC2(CCCC(=O)NC2=O)C1 (centres unmarked) [Example 42, 2-(2-Methoxy-4-nitrophenyl)-2,7-diazaspiro[4.6]undecane-6,8-dione]
50 to 100	COC(=O)c1cc2ncnc(N3CCC4(CCCC(=O)NC4=O)C3)c2s1 (centres unmarked) [Example 43, Methyl 4-(6,8-dioxo-2,7-diazaspiro[4.6]undecan-2-yl)thieno[3,2-d]pyrimidine-6-carboxylate]
≥ 100	O=C1CCC(N2C(=O)CC3(CN(C(=O)c4ccccc4)C3)C2=O)C(=O)N1 (centres unmarked) [Example 44-2, 2-Benzoyl-6-(2,6-dioxopiperidin-3-yl)-2,6-diazaspiro [3.4]octane-5,7-dione]
50 to 100	CC(C)(C)OC(=O)c1ccc(N2CC3(CC(=O)N(C4CCC(=O)NC4=O)C3=O)C2)nc1 (centres unmarked) [Example 45, tert-Butyl 6-[6-(2,6-dioxopiperidin-3-yl)-5,7-dioxo-2,6-diazaspiro [3.4]octan-2-yl]pyridine-3-carboxylate]
50 to 100	CC(C)(C)OC(=O)c1ccnc(N2CC3(CC(=O)N(C4CCC(=O)NC4=O)C3=O)C2)c1 (centres unmarked) [Example 46, tert-Butyl 2-[6-(2,6-dioxopiperidin-3-yl)-5,7-dioxo-2,6-diazaspiro[3.4]octan-2-yl]pyridine-4-carboxylate]
50 to 100	CC(C)(C)OC(=O)c1cccc(N2CC3(CC(=O)N(C4CCC(=O)NC4=O)C3=O)C2)n1 (centres unmarked) [Example 47, tert-Butyl 6-[6-(2,6-dioxopiperidin-3-yl)-5,7-dioxo-2,6-diazaspiro[3.4]octan-2-yl]pyridine-2-carboxylate]
≥ 100	CC(C)(C)OC(=O)CN1CC2(CC(=O)N(C3CCC(=O)NC3=O)C2=O)C1 (centres unmarked) [Example 48, tert-Butyl 2-[6-(2,6-dioxopiperidin-3-yl)-5,7-dioxo-2,6-diazaspiro[3.4]octan-2-yl]acetate]
≥ 100	CC(C)(C)OC(=O)C(C)(C)N1CC2(CC(=O)N(C3CCC(=O)NC3=O)C2=O)C1 (centres unmarked) [Example 49, tert-Butyl 2-[6-(2,6-dioxopiperidin-3-yl)-5,7-dioxo-2,6-diazaspiro[3.4]octan-2-yl]-2-methylpropanoate]
≥ 100	CC(C)(C)OC(=O)NCCCCCN1CC2(CC(=O)N(C3CCC(=O)NC3=O)C2=O)C1 (centres unmarked) [Example 50, tert-Butyl N-[5-[6-(2,6-dioxopiperidin-3-yl)-5,7-dioxo-2,6-diazaspiro[3.4]octan-2-yl]pentyl]carbamate]
≥ 100	CC(C)(C)OC(=O)NCCCCCCCCN1CC2(CC(=O)N(C3CCC(=O)NC3=O)C2=O)C1 (centres unmarked) [Example 51, tert-Butyl N-[8-[6-(2,6-dioxopiperidin-3-yl)-5,7-dioxo-2,6-diazaspiro[3.4]octan-2-yl]octyl]carbamate]
< 50	CCOC(=O)c1ccc2nc(N3CC4(CC(=O)N(C5CCC(=O)NC5=O)C4=O)C3)sc2c1 (centres unmarked) [Example 52, Ethyl 2-[6-(2,6-dioxopiperidin-3-yl)-5,7-dioxo-2,6-diazaspiro[3.4]octan-2-yl]-1,3-benzothiazole-6-carboxylate]
50 to 100	COC(=O)c1cccc(CN2CC3(CC(=O)N(C4CCC(=O)NC4=O)C3=O)C2)c1 (centres unmarked) [Example 53, Methyl 3-[[6-(2,6-dioxopiperidin-3-yl)-5,7-dioxo-2,6-diazaspiro[3.4]octan-2-yl]methyl]benzoate]
50 to 100	COC(=O)c1ccc(CN2CC3(CC(=O)N(C4CCC(=O)NC4=O)C3=O)C2)cc1 (centres unmarked) [Example 54, Methyl 4-[[6-(2,6-dioxopiperidin-3-yl)-5,7-dioxo-2,6-diazaspiro[3.4]octan-2-yl]methyl]benzoate]

Kd [µM]	Structure (SMILES)
≥ 100	O=C1CCC(N2C(=O)CC3(CN(C(=O)CNC(=O)c4ccccc4)C3)C2=O)C(=O)N1 (centres unmarked) [Example 55, N-[2-[6-(2,6-Dioxopiperidin-3-yl)-5,7-dioxo-2,6-diazaspiro[3.4]octan-2-yl]-2-oxoethyl]benzamide]
50 to 100	CC(C)(C)OC(=O)c1ccc(N2CCCC3(CCCC(=O)NC3=O)CCC2)nc1 [Example 56, tert-Butyl 6-(1,3-dioxo-2,11-diazaspiro [6.7]tetradecan-11-yl) pyridine-3-carboxylate]
≥ 100	O=C1CCCC(CNC(=O)c2ccccc2)C(=O)N1 (centres unmarked) [Example 57, N-[(2,7-Dioxoazepan-3-yl)methyl]benzamide]
< 50	CCOC(=O)c1ccc2nc(N3CC4(CC(=O)N(C5CCC(=O)NC5=O)C4)C3)sc2c1 (centres unmarked) [Example 59, Ethyl 2-[6-(2,6-dioxo-3-piperidyl)-7-oxo-2,6-diazaspiro [3.4]octan-2-yl]-1,3-benzothiazole-6-carboxylate]
50 to 100	CC(C)(C)OC(=O)c1cccc(C2CCCC(=O)NC2=O)c1 (centres unmarked) [Example 60, tert-Butyl 3-(2,7-dioxoazepan-3-yl) benzoate]
≥ 100	O=C1CCCC(c2ccc([N+](=O)[O-])cc2)C(=O)N1 (centres unmarked) [Example 61, 3-(4-Nitrophenyl) azepane-2,7-dione]
≥ 100	O=C1CCCC(c2cccc([N+](=O)[O-])c2)C(=O)N1 (centres unmarked) [Example 62, 3-(3-Nitrophenyl) azepane-2,7-dione]
≥ 100	CC(=O)Nc1ccc(Cl)c(C2CCCC(=O)NC2=O)c1 (centres unmarked) [Example 65, N-[4-Chloro-3-(2,7-dioxoazepan-3-yl)phenyl]acetamide]
≥ 100	O=C1CCCC(Oc2ccccc2[N+](=O)[O-])C(=O)N1 (centres unmarked) [Example 66-1, 3-(2-Nitrophenoxy) azepane-2,7-dione]
≥ 100	Nc1ccccc1OC1CCCC(=O)NC1=O (centres unmarked) [Example 66-2, 3-(2-Aminophenoxy) azepane-2,7-dione]
≥ 100	CC(C)(C)OC(=O)COc1cccc(C(=O)NC2CCCC(=O)NC2=O)c1F (centres unmarked) [Example 67, tert-Butyl 2-[3-[(2,7-dioxoazepan-3-yl)carbamoyl]-2-fluorophenoxy]acetate]
≥ 100	COc1c(OCC(=O)OC(C)(C)C)cccc1C(=O)NC1CCCC(=O)NC1=O (centres unmarked) [Example 68, tert-Butyl 2-[3-[(2,7-dioxoazepan-3-yl)carbamoyl]-2-methoxyphenoxy]acetate]
50 to 100	CC(C)(C)OC(=O)COc1cccc(C(=O)NC2CCCC(=O)NC2=O)n1 (centres unmarked) [Example 69, tert-Butyl 2-(6-((2,7-dioxoazepan-3-yl)carbamoyl)pyridin-2-yl) oxyacetate]
≥ 100	Nc1cccc(C2CCCC(=O)NC2=O)c1 (centres unmarked) [Example 70, 3-(3-Aminophenyl) azepane-2,7-dione]
≥ 100	CC(=O)Nc1cccc(C2CCCC(=O)NC2=O)c1 (centres unmarked) [Example 71, N-[3-(2,7-Dioxoazepan-3-yl)phenyl]acetamide]
< 50	O=C1CCCC2(CCN(c3nc4ccc([N+](=O)[O-])cc4s3)C2)C(=O)N1 (centres unmarked) [Example 72, 2-(6-Nitro-1,3-benzothiazol-2-yl)-2,7-diazaspiro [4.6]undecane-6,8-dione]
